# Data taken from ChEMBL document CHEMBL3627707, “Incorporation of metabolically stable ketones into a small molecule probe to increase potency and water solubility” (Bioorg Med Chem Lett, 2015).
# Active and inactive are the calls of the source. The calls are words filed in the database; no cut-off is given here.
# How the values were obtained:
# [1] = Growth inhibition of human RAS-G12V overexpressing BJeLR cells after 48 hrs by alamar blue assay; type: functional, cell-based
# [2] = Selectivity ratio of IC50 for human BJeH cells to IC50 for human RAS-G12V overexpressing BJeLR cells; type: ADME, cell-based; conditions: BJeH cells and RAS-G12V overexpressing BJeLR cells, read-out: Ratio IC50
# [3] = Metabolic stability in mouse liver microsomes assessed as compound remaining after 30 mins by LC-MS/MS analysis; type: ADME; conditions: read-out: Stability
# [4] = Metabolic stability in mouse liver microsomes assessed as compound remaining after 45 mins by LC-MS/MS analysis; type: ADME; conditions: read-out: Stability
# [5] = (§1) Half life in mouse liver microsomes by LC-MS/MS analysis; type: ADME; conditions: liver microsomes
# [6] = Solubility of compound in water; type: physicochemical; conditions: buffer
# [7] = Growth inhibition of human HT1080 cells after 48 hrs by alamar blue assay; type: functional; conditions: HT-1080, 48 h
# [8] = biological target: T1, Cystine/glutamate transporter (Homo sapiens, UniProt Q9UPY5); test: Inhibition of Xct in human CCF-STTG1 cells assessed as glutamate release after 2 hrs by fluorometry; type: cell-based
# T1 sequence (Q9UPY5 whole entry): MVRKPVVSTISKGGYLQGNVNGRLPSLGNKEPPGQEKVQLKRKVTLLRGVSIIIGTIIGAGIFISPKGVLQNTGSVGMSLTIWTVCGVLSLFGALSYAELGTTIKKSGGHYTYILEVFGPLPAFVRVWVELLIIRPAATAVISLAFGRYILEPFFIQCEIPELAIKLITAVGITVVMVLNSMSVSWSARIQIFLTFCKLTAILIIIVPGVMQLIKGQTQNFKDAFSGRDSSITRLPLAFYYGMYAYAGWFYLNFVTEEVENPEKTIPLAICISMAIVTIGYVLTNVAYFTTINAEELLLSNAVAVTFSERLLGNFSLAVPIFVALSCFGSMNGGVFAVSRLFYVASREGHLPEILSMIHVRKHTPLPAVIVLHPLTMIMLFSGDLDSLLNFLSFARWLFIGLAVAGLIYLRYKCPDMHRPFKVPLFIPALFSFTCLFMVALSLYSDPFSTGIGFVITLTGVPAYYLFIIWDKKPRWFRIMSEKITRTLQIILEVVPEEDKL
# [9] = Metabolic stability in mouse liver microsomes assessed as compound remaining after 15 mins by LC-MS/MS analysis; type: ADME; conditions: read-out: Stability
# [10] = Metabolic stability in mouse liver microsomes assessed as compound remaining after 5 mins by LC-MS/MS analysis; type: ADME; conditions: for remaining at 5 min: liver microsomes, read-out: Stability; for Stability: microsomes, 5 min
# [11] = test system: DRD; test: Growth inhibition of human RAS-G12V overexpressing DRD cells after 48 hrs by alamar blue assay; type: functional, cell-based
# [12] = test system: Liver; test: as §1; type: ADME; conditions: microsomes
# [13] = Growth inhibition of human RAS-G12V overexpressing BJeLR cells; type: functional
# [14] = test system: Plasma; test: Stability in mouse plasma at 500 ng/ml measured upto 120 mins; type: ADME, cell-free; conditions: 2 h
SMILES,IC50 [1],selectivity ratio [2],remaining at 0.5 h [3],remaining at 0.75 h [4],half-life [5],solubility [6],GI50 [7],IC50 [8],remaining at […] [9],remaining at 5 min [10],inhibition [11],Stability [10],t1/2 [12],GI50 [13],Stability [14]
CC(C)Oc1ccc(C(=O)C(F)(F)F)cc1-n1c(CN2CCN(C(=O)COc3ccc(Cl)cc3)CC2)nc2ccccc2c1=O,210 nM,8,,,,,,,,,,,,,
CC(C)Oc1ccc(CN2CCNCC2)cc1-n1c(CN2CCN(C(=O)COc3ccc(Cl)cc3)CC2)nc2ccccc2c1=O,300 nM,3,66.6%,59.4%,55.3 min,1400 µM,1200 nM,800 nM,79.2%,,,,,,
CC(C)Oc1ccc(C(=O)CN2CCOCC2)cc1-n1c(CN2CCN(C(=O)COc3ccc(Cl)cc3)CC2)nc2ccccc2c1=O,427 nM,5,30.6%,21.2%,,,,,53.2%,83.8%,Active,,,,
C=CCN1CCN(CC(=O)c2ccc(OC(C)C)c(-n3c(CN4CCN(C(=O)COc5ccc(Cl)cc5)CC4)nc4ccccc4c3=O)c2)CC1,195 nM,1.5,0%,0%,,,,,2.4%,37.3%,inactive,,,,
CC(=O)c1ccc(OC(C)C)c(-n2c(CN3CCN(C(=O)COc4ccc(Cl)cc4)CC3)nc3ccccc3c2=O)c1,,,0%,0%,,,59 nM,,0%,,Active,0.5%,3.8 min,,
COc1ccc(CN2CCN(CC(=O)c3ccc(OC(C)C)c(-n4c(CN5CCN(C(=O)COc6ccc(Cl)cc6)CC5)nc5ccccc5c4=O)c3)CC2)cc1,13 nM,13,0.3%,0.2%,,,,,2.8%,29.7%,Active,,,,
CCOc1ccccc1-n1c(C(C)N2CCN(C(=O)COc3ccc(Cl)cc3)CC2)nc2ccccc2c1=O (stereo unspecified) [ERASTIN],,,,,< 5 min,90 µM,,,,,Active,,,,
CC(C)Oc1ccc(C=O)cc1-n1c(CN2CCN(C(=O)COc3ccc(Cl)cc3)CC2)nc2ccccc2c1=O,8 nM,15,,,,80 µM,,,,,,,,8 nM,
CC(C)Oc1ccc(C(=O)CN2CCN(C)CC2)cc1-n1c(CN2CCN(C(=O)COc3ccc(Cl)cc3)CC2)nc2ccccc2c1=O,474 nM,1.9,,,,,,,,,inactive,,,,
CC(C)Oc1ccc(C(=O)CF)cc1-n1c(CN2CCN(C(=O)COc3ccc(Cl)cc3)CC2)nc2ccccc2c1=O,,,0%,0%,,,,,0%,,Active,15.5%,4.7 min,,
CC(C)Oc1ccc(C(=O)Cn2ccnc2)cc1-n1c(CN2CCN(C(=O)COc3ccc(Cl)cc3)CC2)nc2ccccc2c1=O,3 nM,42,75.4%,64.1%,78.5 min,,314 nM,,82.9%,89.3%,Active,,,,Stable
CC(C)Oc1ccc(C(=O)CN2CCNCC2)cc1-n1c(CN2CCN(C(=O)COc3ccc(Cl)cc3)CC2)nc2ccccc2c1=O,,,76.2%,76.9%,,,550 nM,,94.7%,87.4%,,,,,Stable
